The values below come from patent US20250382306A1, “HETEROCYCLIC COMPOUND AS TAAR1 LIGAND AGONIST” (SHANDONG LUYE PHARMACEUTICAL CO., LTD., priority 2022, published 2025).

In general, EC50 refers to the concentration that produces a half-maximal response.

One data set deals with T1, TAAR1 (Homo sapiens, UniProt Q96RJ0).
T1 construct: expressed in transfected cells; host or cells: CHO-K1 (cAMP Hunter TAAR1 Gs cell line)
T1 sequence (Q96RJ0 1-339): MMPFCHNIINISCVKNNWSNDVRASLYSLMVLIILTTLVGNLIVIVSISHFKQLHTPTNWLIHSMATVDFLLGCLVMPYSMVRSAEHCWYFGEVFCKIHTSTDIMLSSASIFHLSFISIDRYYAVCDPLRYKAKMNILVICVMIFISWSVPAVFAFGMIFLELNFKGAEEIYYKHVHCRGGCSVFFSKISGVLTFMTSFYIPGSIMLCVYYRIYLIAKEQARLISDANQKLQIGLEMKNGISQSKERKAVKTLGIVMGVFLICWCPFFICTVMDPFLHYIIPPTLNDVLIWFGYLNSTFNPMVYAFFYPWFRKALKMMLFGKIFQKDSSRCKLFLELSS
Kind of data set: In vitro TAAR1 functional activity (cAMP Hunter CHO-K1 TAAR1 Gs cell line, HitHunter cAMP assay). The data set is classed as cell-based. To be noted: chemiluminescence cAMP readout. As to the method:
Test Example 1. In Vitro Evaluation of Intrasynaptic and Extrasynaptic Functional Activities in Cells
Cell: CAMP Hunter™ CHO-K1 TAAR1 Gs Cell Line
Assay Reagent: HitHunter cAMP Assay Detection Kit
Experimental Instrument: PerkinElmer Envision™ Chemiluminescence Signal Detector
Experimental method: cell treatment: The cAMP Hunter cell strain was cultured at 37° C. with 5% CO2 to 70-80% confluence. The cells were harvested, and the cell density was adjusted to 1.5×10^4 cells/mL. The cells were seeded in a white-wall 384-well microwell plate at a volume of 20 μL, and incubated at 37° C. with 5% CO2 overnight. The cell medium was discarded, and 15 μL of 2:1 HBSS/10 mM Hepes:cAMP XS+Ab reagent was added to each well. The mother solution of the sample was diluted with an assay buffer in a concentration gradient to a 4× sample, and 5 μL of the 4× sample was added to each well. The plate was incubated at 37° C. or room temperature for 30 or 60 min. […] 20 μL of cAMP XS+EA reagent was added to each well, and the plate was incubated at room temperature for 3 h. The chemiluminescence signal was read using a PerkinElmer Envision™ detector.
Data analysis: EC50 was calculated using CBIS data analysis software (ChemInnovation, CA). The activity percentage was calculated using the following formula: % activity=100%×(test sample average RLU−solvent control average RLU)/(maximum control average RLU−solvent control average RLU).

Data set [1] in a line: Pharmacokinetic study in rats. The class given is in vivo, SD rats. As to the method:
Test Example 2. Pharmacokinetic Study in Rats
Rat: SD Rats Weighing 200-250 g
Reagent: acetonitrile, MERCK; methanol, MERCK; formic acid, Sigma; tolbutamide, Sigma.
Instrument: water purification equipment, Millipore; electronic balance, METTLER TOLEDO; high-speed benchtop centrifuge, Thermno; water bath thermostatic oscillator, Shanghai Yiheng Technical Co., Ltd.; vortex oscillator, Thermno; liquid chromatography-mass spectrometry, AB SCIEX.
Method: The SD rats were dosed intravenously (IV) and intragastrically (IG), 3 SD rats in each group. Compounds 1-b, 2-a and L27 were separately administered, and the vehicles were DMSO and Tween 80. […] Whole blood samples were separately collected at 0, 5 m (intravenous), 15 m, 30 mi, 1 h, 2 h, 4 h, 6 h, 8 h, 12 h, and 24 h. The whole blood was placed in a heparinized EP tube and centrifuged at 13,500 rpm for 10 min to separate the plasma. After pretreatment, the plasma was analyzed by LC-MS/MS to determine the concentration of the test compound in the plasma.

In data set [2] the test system is MK801-induced overactivity. Kind of data set: Pharmacodynamic study in mice, MK-801 overactivity model (Test Example 5). The data set is classed as in vivo, C57 mice. The conditions noted are these: 3 mg/kg intragastric. As to the method:
(§1) 4.1. model preparation: MK-801 induces overactivity in mice and is commonly used for preclinical evaluation of antipsychotics. The modeling method in this test was: The mice were injected with MK-801 intraperitoneally in at single dose of 0.8 mg/kg.
(§2) The mice were randomly divided into groups. At the start of the test, the test samples were administered intragastrically at an single dose according to the doses shown in Table 5, and the mice were placed in an activity chamber. After 30 min, each mouse was injected intraperitoneally with 0.8 mg/kg of MK-801 for modeling, and placed in the activity chamber again. The movement distance (mm) of the mice after modeling (i.e., within 30-60 min after administration) was recorded and analyzed using a TopScan monitoring system.
(§3) […] The total movement distance of the mice after modeling (30-60 min after administration) was recorded.
(§4) Data analysis and processing were carried out using Graphpad 5.0 software. ANOVA test was used to compare the total movement distance between each administration group and model group within 30-60 min.
Test Example 5. Pharmacodynamic Study in Mice
5.1. Experimental grouping: The mice were randomly divided into model group, 1-b group, and 2-a group, 5 animals in each group, as shown in Table 6. The model preparation, test method, observation of indexes and statistical method were the same as those in Test Example 4.

Data set [3] concerns MK801-induced overactivity. Description: Pharmacodynamic study in mice, MK-801 overactivity model (Test Example 4). The class given is in vivo. To be noted: C57 mice, L27 hydrochloride 16 mg/kg intragastric, MK-801 0.8 mg/kg i.p., 30-60 min after administration; p<0.05 vs model group 63052.14±21618.80 mm. As to the method:
Test Example 4. Pharmacodynamic Study in Mice
Mouse: C57 mice weighing 20-22 g
Instrument: electronic balance, METTLER TOLEDO; TopScan monitoring system.
as §1
4.2. Experimental grouping: The mice were randomly divided into model group, 1-b group, and L27 group, 10 animals in each group, as shown in Table 5.
as §2, §3, §4

Setting [4] is: cAMP Hunter CHO-K1 TAAR1 Gs cell line, read-out: EC50.
Where [5] appears, read: EC50, cAMP Hunter CHO-K1 TAAR1 Gs cell line.

Like-named read-outs stand apart in the source and are kept apart here.

As to `COc1ccsc1C1CNCCO1` (single isomer, unassigned) [Compound 10-a], at TAAR1 (setting [4]), the 50% effective concentration (EC50) is 0.028 µM.

`COc1ccsc1C1CNCCO1` (single isomer, unassigned) [Compound 10-b]: the EC50 at TAAR1 (setting [4]) amounted to 0.386 µM. On the same count and under the same terms, the result for `CNCC1OC(C)Cc2ccsc21` (single isomer, unassigned) [Compound 28-a] reads over 10 µM; that for `CNCC1OC(C)Cc2ccsc21` (single isomer, unassigned) [Compound 28-b], 1.84 µM; that for `CNCC1OCC(c2ccccc2)c2ccsc21` (single isomer, unassigned) [Compound 32-a], over 10 µM.

Take `CNCC1OCC(c2ccccc2)c2ccsc21` (single isomer, unassigned) [Compound 32-b]: the EC50 at TAAR1 (setting [4]) is over 10 µM.

For `CNCC1OCC(c2ccccc2)c2ccsc21` (single isomer, unassigned) [Compound 32-c], the EC50 on TAAR1 (setting [4]) was over 10 µM. As to `CNCC1OCC(c2ccccc2)c2ccsc21` (single isomer, unassigned) [Compound 32-d], the EC50 at TAAR1 (setting [4]) was over 10 µM. Take `CN1CCc2ccsc2C1CN` (single isomer, unassigned) [Compound 42-a]: the EC50 on TAAR1 (setting [4]) was over 10 µM.

In the case of `CN1CCc2ccsc2C1CN` (single isomer, unassigned) [Compound 42-b], the concentration for a half-maximal effect (EC50) at TAAR1 (setting [4]) came out at 0.244 µM.

For `NCC1SCCc2ccsc21` (single isomer, unassigned) [Compound 43-a], the EC50 at TAAR1 (setting [4]) is over 10 µM. On the same count and under the same terms, the result for `NCC1SCCc2ccsc21` (single isomer, unassigned) [Compound 43-b] reads 0.031 µM; that for `c1cc2c(s1)[C@H]1CNCCN1CC2` [Compound 1-a], 9.12 µM. Take `CN1CCN2CCc3ccsc3[C@@H]2C1` [Compound 2-a]: the “Exposure and bioavailability (conclusion)” value in data set [1] (rat, in vivo) was “relatively high exposure and bioavailability”. In data set [2], the “effect on MK801-induced overactivity (conclusion)” value was “good inhibition effect”. Moreover, the “total movement distance after modeling” value in data set [2] (MK-801 0.8 mg/kg i.p., 30-60 min after administration, p<0.05 vs model group 101535.71±26076.11 mm) stood at 9161.61±4711.10 mm. Also, the EC50 at TAAR1 (setting [4]) was 4.4 µM.

On to `CN1CCN2CCc3ccsc3[C@H]2C1` [Compound 2-b], for which, at TAAR1 (setting [4]), the EC50 is over 10 µM. As to `Fc1csc(C2CNCCO2)c1` (centres unmarked) [Compound 8], it took 0.295 µM to reach a half-maximal effect at TAAR1 (setting [5]) (EC50). Regarding `Fc1ccc(C2CNCCO2)s1` (centres unmarked) [Compound 9], the EC50 on TAAR1 (setting [4]) was determined as 0.734 µM. For the compound `COc1csc([C@@H]2CNCCO2)c1` [Compound 11-a], the EC50 at TAAR1 (setting [5]) is over 10 µM. Compound `COc1csc([C@H]2CNCCO2)c1` [Compound 11-b] yielded an EC50 at TAAR1 (setting [5]) of 2.16 µM. Same read-out and setting: the result for `COc1ccc([C@@H]2CNCCO2)s1` [Compound 12-a] reads over 10 µM. The same measure, in the same setting: the result for `COc1ccc([C@H]2CNCCO2)s1` [Compound 12-b] reads 1.59 µM. Same read-out and setting: the result for `CC(C)Oc1ccsc1C1CNCCO1` (centres unmarked) [Compound 15] reads over 10 µM; that for `FC(F)COc1ccsc1C1CNCCO1` (centres unmarked) [Compound 19], over 10 µM. With `FC(F)(F)COc1ccsc1C1CNCCO1` (centres unmarked) [Compound 20], the EC50 at TAAR1 (setting [4]) stood at 4.72 µM. For the compound `CNCC1OC(COC)Cc2ccsc21` (centres unmarked) [Compound 30], at TAAR1 (setting [4]), the EC50 is over 10 µM. As for `CNCC1OC(C)(C)Cc2ccsc21` (centres unmarked) [Compound 34], the EC50 on TAAR1 (setting [4]) was 1.25 µM.

In the case of `CNCC1OCC(C)(C)c2ccsc21` (centres unmarked) [Compound 35], the EC50 on TAAR1 (setting [4]) was over 10 µM. On the same count and under the same terms, the figure for `CNCC1OCCc2ccoc21` (centres unmarked) [Compound 37] is 1.23 µM. `CNC[C@@H]1NCCc2ccsc21` [Compound 38-a]: on TAAR1 (setting [4]), the EC50 is over 10 µM. Turning to `CNC[C@H]1NCCc2ccsc21` [Compound 38-b], the EC50 on TAAR1 (setting [4]) was determined as 7.96 µM. Regarding `OC[C@H]1OCCc2ccsc21` [Compound 39-a], the 50% effective concentration (EC50) on TAAR1 (setting [4]) was over 10 µM.

With `OC[C@@H]1OCCc2ccsc21` [Compound 39-b], on TAAR1 (setting [4]), the EC50 was over 10 µM. Regarding `CNC[C@@H]1SCCc2ccsc21` [Compound 40-a], the EC50 at TAAR1 (setting [4]) is over 10 µM. For the compound `CNC[C@H]1SCCc2ccsc21` [Compound 40-b], the half-maximal effective concentration (EC50) at TAAR1 (setting [4]) was 0.522 µM. With `NC[C@@H]1NCCc2ccsc21` [Compound 41-a], the EC50 at TAAR1 (setting [4]) came to 9.1 µM. Same read-out and setting: the result for `NC[C@H]1NCCc2ccsc21` [Compound 41-b] reads 0.424 µM; that for `c1cc(C2CC2)c(C2CNCCO2)s1` (centres unmarked) [Compound 59], 2.91 µM.

In the case of `FCCOc1ccsc1C1CNCCO1` (centres unmarked) [Compound 60], the EC50 on TAAR1 (setting [5]) was 9.8 µM.

With `CNCC1c2sccc2CCN1C` (centres unmarked) [Compound 61], the EC50 at TAAR1 (setting [4]) was over 10 µM. Regarding `CC(OC(=O)C(C)C)OC(=O)N1CCN2CCc3ccsc3[C@@H]2C1` (some centres unmarked) [Compound L27], in data set [1] (SD rats, after intragastric L27 9 mg/kg), the “Detection of L27 in plasma” value was “L27 was not detected”. In addition, in data set [3], the “total movement distance after modeling” value worked out at 8100.56±7787.37 mm.
